Values of other authors in US4510132A, “Compounds for use in antibacterial therapy” (priority 1982, dated 1985).

Columns and labels:
mice = details: Chihara et al, Kajiwara et al; cited from earlier work
[1] = Chihara et al 1973, 1974; cited from earlier work

## polymyxin E nonapeptide [PMEN]
mice
  toxicity to eukaryotes (mice) compared with parent compound colistin: significantly less toxic
[1]
  antibacterial activity compared with colistin: lack the antibacterial activity of colistin
